Data published in patent US10995091B2 (Proximagen, LLC, priority 2010, dated 2021).

molecular target: T1, Human CXCR4 transfected HEK293 cells (Homo sapiens, UniProt P61073); assay: CXCR4 functional calcium assay (calcium flux FLIPR, antagonism of SDF1 response); type: cell-based; conditions: CXCR4 functional activity, antagonism of SDF1 (EC50 concentration), read-out: CXCR4 fKi
T1 construct: expressed in transfected cells; host or cells: HEK293
Method in brief: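 HEK293 cells stably transfected with human CXCR4 were loaded with 2 μM Fluo-4 AM in HBSS containing 2.5 mM probenecid, 0.1% BSA and 10 mM HEPES at pH 7.4 and 37° C. Compound was added first, then SDF1 at its EC50 concentration, and intracellular calcium fluorescence was followed on a FLIPR. Antagonist dose-response curves were fitted.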

T1 sequence (P61073 whole entry): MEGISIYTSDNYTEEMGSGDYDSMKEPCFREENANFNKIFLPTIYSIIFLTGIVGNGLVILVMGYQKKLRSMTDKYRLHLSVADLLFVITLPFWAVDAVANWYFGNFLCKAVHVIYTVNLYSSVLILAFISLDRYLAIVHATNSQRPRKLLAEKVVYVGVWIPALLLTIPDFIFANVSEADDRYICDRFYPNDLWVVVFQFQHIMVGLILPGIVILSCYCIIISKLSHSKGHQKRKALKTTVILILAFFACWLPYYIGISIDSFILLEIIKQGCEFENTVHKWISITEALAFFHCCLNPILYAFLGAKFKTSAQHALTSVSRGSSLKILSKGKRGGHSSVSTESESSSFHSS

Compared with `CC(CC(F)(F)F)N1CCC(N2CCCN(c3cccc(C(=O)NCC4CC4)n3)CC2)CC1` (stereo not shown) [Example 70, N-(Cyclopropylmethyl)-6-{4-[1-(4,4,4-trifluorobutan-2-yl)piperidin-4-yl]-1,4-diazepan-1-yl}pyridine-2-carboxamide], `CC(C)N1CCC(N2CCCN(c3cccc(C(=O)NC[C@H]4CCCO4)n3)CC2)CC1` [Example 20, N-[(2R)-Oxolan-2-ylmethyl]-6-{4-[1-(propan-2-yl)piperidin-4-yl]-1,4-diazepan-1-yl}pyridine-2-carboxamide] is higher in Ki: 20 to 100 nM for the first, 100 to 500 nM for the second.

First: CC(C)N1CCC(N2CCCN(c3cccc(C(=O)N(C)Cc4cccnc4)n3)CC2)CC1 [Example 35, N-Methyl-6-{4-[1-(Propan-2-yl)piperidin-4-yl]-1,4-diazepan-1-yl}-N-(pyridin-3-ylmethyl)pyridine-2-carboxamide]
Second: C[C@H](c1ccccc1)N1CCC(N2CCCN(c3cccc(C(=O)NCc4cccnc4)n3)CC2)CC1 [Example 92, 6-(4-{1-[(1R)-1-Phenylethyl]piperidin-4-yl}-1,4-diazepan-1-yl)-N-(pyridine-3-ylmethyl)pyridine-2-carboxamide]
The Ki of the first is higher: 100 to 500 nM for the first, 20 to 100 nM for the second. The second binds more tightly here.

First: CC(C)N1CCC(N2CCCN(c3cccc(C(=O)NCc4nccs4)n3)CC2)CC1 [Example 39, 6-{4-[1-(Propan-2-yl)piperidin-4-yl]-1,4-diazepan-1-yl} N-(1,3-thiazol-2-ylmethyl)pyridine-2-carboxamide]
Second: CC(C)N1CCC(N2CCCN(c3cccc(C(=O)NCc4nccn4C)n3)CC2)CC1 [Example 37, N-[(1-Methyl-1H-imidazol-2-yl)methyl]-6-{4-[1-(propan-2-yl)piperidin-4-yl]-1,4-diazepan-1-yl}pyridine-2-carboxamide]
The Ki of the first is lower: 20 to 100 nM for the first, 100 to 500 nM for the second. The first binds more tightly here.

First: Cc1cc(C(=O)NCCCn2ccnc2)nc(N2CCCN(C3CCN(Cc4ccccc4Cl)CC3)CC2)n1 [Example 266, 2-(4-{1-[(2-Chlorophenyl)methyl]piperidin-4-yl}-1,4-diazepan-1-yl)-N-[3-(1H-imidazol-1-yl)propyl]-6-methylpyrimidine-4-carboxamide]
Second: CCCCNC(=O)c1cccc(N2CCCN(C3CCN(Cc4ccccc4Cl)CC3)CC2)n1 [Example 138, N-Butyl-6-(4-{1-[(2-chlorophenyl)methyl]piperidin-4-yl}-1,4-diazepan-1-yl)pyridine-2-carboxamide]
The Ki of the first is lower: 100 to 500 nM for the first, 500 to 1000 nM for the second.

First: CC(C)N1CCC(N2CCCN(c3cccc(C(=O)Nc4ccc(Cl)cc4)n3)CC2)CC1 [Example 25, N-(4-Chlorophenyl)-6-{4-[1-(propan-2-yl)piperidin-4-yl]-1,4-diazepan-1-yl}pyridine-2-carboxamide]
Second: COc1ccc(NC(=O)c2cccc(N3CCCN(C4CCN(C(C)C)CC4)CC3)n2)cc1 [Example 26, N-(4-Methoxyphenyl)-6-{4-[1-(propan-2-yl)piperidin-4-yl]-1,4-diazepan-1-yl}pyridine-2-carboxamide]
The Ki of the first is higher: 100 to 500 nM for the first, 20 to 100 nM for the second. The second binds more tightly here.

`CC(C)N1CCC(N2CCCN(c3cccc(-c4ncc(C5CC5)[nH]4)n3)CC2)C(F)C1` (stereo not shown) [Example 212, 1-[6-(4-Cyclopropyl-1H-imidazol-2-yl)pyridin-2-yl]-4-[3-fluoro-1-(propan-2-yl)piperidin-4-yl]-1,4-diazepane] and `c1cc(-c2ncc(C3CC3)[nH]2)nc(N2CCCN(C3CCC(N4CCCC4)CC3)CC2)c1` (stereo not shown) [Example 255, 1-[6-(4-Cyclopropyl-1H-imidazol-2-yl)pyridin-2-yl]-4-[4-(pyrrolidin-1-yl)cyclohexyl]-1,4-diazepane] fall in the same range of Ki: 100 to 500 nM for the first, 100 to 500 nM for the second.

First: COc1ccc2cc(-c3cccc(N4CCCN(C5CCN(C(C)C)CC5)CC4)n3)[nH]c2c1 [Example 104, 6-Methoxy-2-(6-{4-[1-(propan-2-yl)piperidin-4-yl]-1,4-diazepan-1-yl}pyridine-2-yl)-1H-indole]
Second: CC(C)N1CCC(N2CCCN(c3cccc(-c4cc5cnccc5[nH]4)n3)CC2)CC1 [Example 97, 1-[1-(Propan-2-yl)piperidin-4-yl]-4-(6-{1H-pyrrolo[3,2-c]pyridine-2-yl}pyridine-2-yl)-1,4-diazepane]
The Ki of the first is higher: 500 to 1000 nM for the first, 100 to 500 nM for the second. The second binds more tightly here.

`O=C(Nc1ccncc1)c1cccc(N2CC[C@@H](NC[C@H]3CCN(C4CCCC4)C3)C2)n1` [Example 227, 6-[(3R)-3-({[(3R)-1-Cyclopentylpyrrolidin-3-yl]methyl}amino)pyrrolidin-1-yl]-N-(pyridin-4-yl)pyridine-2-carboxamide] and `O=C(Nc1ccncc1)c1cccc(N2CC[C@@H](NC[C@@H]3CCN(C4CCCC4)C3)C2)n1` [Example 226, 6-[(3R)-3-({[(3S)-1-Cyclopentylpyrrolidin-3-yl]methyl}amino)pyrrolidin-1-yl]-N-(pyridin-4-yl)pyridine-2-carboxamide] cannot be ordered by Ki: less than 20 nM for the first, less than 20 nM for the second.

Compared with `CCc1cnc(-c2cccc(N3CCCN(C4CCN([C@@H](C)C(F)(F)F)CC4)CC3)n2)[nH]1` [Example 115, 1-[6-(4-Ethyl-1H-imidazol-2-yl)pyridine-2-yl]-4-{1-[(2S)-1,1,1-trifluoropropan-2-yl]piperidin-4-yl}-1,4-diazepane], `CCc1[nH]c(-c2cccc(N3CCCN(C4CCN(C(C)C)CC4)CC3)n2)nc1C` [Example 119, 1-[6-(5-Ethyl-4-methyl-1H-imidazol-2-yl)pyridine-2-yl]-4-[1-(propan-2-yl)piperidin-4-yl]-1,4-diazepane] is lower in Ki: 100 to 500 nM for the first, less than 20 nM for the second. The second binds more tightly here.

First: COc1ccccc1CN1CCC(N2CCCN(c3cccc(C(=O)NCC4CC4)n3)CC2)CC1 [Example 133, N-(Cyclopropylmethyl)-6-(4-{1-[(2-methoxyphenyl)methyl]piperidin-4-yl}-1,4-diazepan-1-yl)pyridine-2-carboxamide]
Second: CC(C)CCNC(=O)c1cccc(N2CCCN(C3CCN(Cc4ccccc4Cl)CC3)CC2)n1 [Example 49, 6-(4-{1-[(2-Chlorophenyl)methyl]piperidin-4-yl}-1,4-diazepan-1-yl)-N-(3-methylbutyl)pyridine-2-carboxamide]
The Ki of the first is lower: 20 to 100 nM for the first, 100 to 500 nM for the second.

`CC(C)N1CCC(N2CCCN(c3cccc(-c4noc(C5CCCC5)n4)n3)CC2)CC1` [Example 162, 1-[6-(5-Cyclopentyl-1,2,4-oxadiazol-3-yl)pyridine-2-yl]-4-[1-(propan-2-yl)piperidin-4-yl]-1,4-diazepane] and `CC(C)N1CCC(N2CCCN(c3cccc(-c4nnc(C5CC5)o4)n3)CC2)CC1` [Example 172, 1-[6-(5-Cyclopropyl-1,3,4-oxadiazol-2-yl)pyridin-2-yl]-4-[1-(propan-2-yl)piperidin-4-yl]-1,4-diazepane] fall in the same range of Ki: 100 to 500 nM for the first, 100 to 500 nM for the second.

First: Cc1nc(-c2cccc(NCCNC[C@@H]3CCN(C4CCCC4)C3)n2)[nH]c1C1CC1 [Example 247, {[(3S)-1-Cyclopentylpyrrolidin-3-yl]methyl}(2-{[6-(5-cyclopropyl-4-methyl-1H-imidazol-2-yl)pyridin-2-yl]amino}ethyl)amine]
Second: Cc1nc(-c2cccc(N3CCCN(C4CCN(C5CCCC5)CC4F)CC3)n2)[nH]c1C1CC1 (stereo not shown) [Example 214, 1-(1-Cyclopentyl-3-fluoropiperidin-4-yl)-4-[6-(4-cyclopropyl-5-methyl-1H-imidazol-2-yl)pyridin-2-yl]-1,4-diazepane]
The Ki of the first is lower: 20 to 100 nM for the first, 100 to 500 nM for the second. The first binds more tightly here.

First: COCc1nc(-c2cccc(N3CCCN(C4CCN(C(C)C)CC4)CC3)n2)no1 [Example 163, 1-{6-[5-(Methoxymethyl)-1,2,4-oxadiazol-3-yl]pyridine-2-yl}-4-[1-(propan-2-yl)piperidin-4-yl]-1,4-diazepane]
Second: CC(C)c1nc(-c2cccc(N3CCCN(C4CCN(C(C)C)CC4)CC3)n2)no1 [Example 158, 1-{6-[5-(Propan-2-yl)-1,2,4-oxadiazol-3-yl]pyridine-2-yl}-4-[1-(propan-2-yl)piperidin-4-yl]-1,4-diazepane]
The Ki of the first is lower: 100 to 500 nM for the first, 500 to 1000 nM for the second. The first binds more tightly here.

First: [2H]C1([2H])CCN(C2CCN(C(C)C)CC2F)CCN1c1cccc(C(=O)Nc2ccncc2)n1 (stereo not shown) [Example 211, 6-{4-[3-Fluoro-1-(propan-2-yl)piperidin-4-yl]-7,7-dihydrogenio-1,4-diazepan-1-yl}-N-(pyridin-4-yl)pyridine-2-carboxamide]
Second: CC(C)N1CCC(N2CCCC(Nc3cccc(C(=O)Nc4ccncc4)n3)C2)CC1 (stereo not shown) [Example 222, 6-({1-[1-(Propan-2-yl)piperidin-4-yl]piperidin-3-yl}amino)-N-(pyridin-4-yl)pyridine-2-carboxamide]
The Ki of the first is lower: 20 to 100 nM for the first, 500 to 1000 nM for the second. The first binds more tightly here.

First: CC(C)N1CCC(N2CCCN(c3cccc(C(=O)Nc4ccccc4)n3)CC2)CC1 [Example 23, N-Phenyl-6-{4-[1-(propan-2-yl)piperidin-4-yl]-1,4-diazepan-1-yl}pyridine-2-carboxamide]
Second: CC(C)N1CCC(N2CCCN(c3cccc(C(=O)N[C@H]4CCOC4)n3)CC2)CC1 [Example 18, N-[(3S)-Oxolan-3-yl]-6-{4-[1-(propan-2-yl)piperidin-4-yl]-1,4-diazepan-1-yl}pyridine-2-carboxamide]
The Ki of the first is lower: less than 20 nM for the first, 100 to 500 nM for the second.

`CC(C)N1CCC(N2CC3CCC2CN(c2cccc(C(=O)Nc4ccncc4)n2)C3)CC1` (stereo not shown) [Example 197, 6-{6-[1-(Propan-2-yl)piperidin-4-yl]-3,6-diazabicyclo[3.2.2]nonan-3-yl}-N-(pyridin-4-yl)pyridine-2-carboxamide] and `Cc1ccccc1CN1CCCC(N2CCN(c3cccc(C(=O)Nc4ccncc4)n3)CC2)CC1` (stereo not shown) [Example 240, 6-(4-{1-[(2-Methylphenyl)methyl]azepan-4-yl}piperazin-1-yl)-N-(pyridin-4-yl)pyridine-2-carboxamide] fall in the same range of Ki: 20 to 100 nM for the first, 20 to 100 nM for the second.

First: O=C(NCC1CC1)c1cccc(N2CCCN(C3CCN(C4CCCC4)CC3)CC2)n1 [Example 72, 6-[4-(1-Cyclopentylpiperidin-4-yl)-1,4-diazepan-1-yl]-N-(cyclopropylmethyl)pyridine-2-carboxamide]
Second: Cc1ccnc(N2CCCN(C3CCN(Cc4ccccc4Cl)CC3)CC2)c1 [Example 264, 1-{1-[(2-Chlorophenyl)methyl]piperidin-4-yl}-4-(4-methylpyridin-2-yl)-1,4-diazepane]
The Ki of the first is lower: 20 to 100 nM for the first, 100 to 500 nM for the second. The first binds more tightly here.
